According to publication PMC11125359 (Pharmaceuticals, 2024):

Assays:
[1] = test system: α-amylase; assay: α-Amylase inhibition (anti-diabetic); type: biochemical; details: equal concentrations (1000 µg/mL); mean ± SE
[2] = test system: α-glucosidase; assay: α-Glucosidase inhibition (anti-diabetic); type: biochemical; details: equal concentrations (1000 µg/mL); mean ± SE
[3] = target: acetylcholinesterase (AChE) (Homo sapiens, UniProt P22303); assay: biochemical; details: same concentration (1000 µg/mL); mean ± SE
acetylcholinesterase (AChE), sequence (P22303 32-614, species assumed): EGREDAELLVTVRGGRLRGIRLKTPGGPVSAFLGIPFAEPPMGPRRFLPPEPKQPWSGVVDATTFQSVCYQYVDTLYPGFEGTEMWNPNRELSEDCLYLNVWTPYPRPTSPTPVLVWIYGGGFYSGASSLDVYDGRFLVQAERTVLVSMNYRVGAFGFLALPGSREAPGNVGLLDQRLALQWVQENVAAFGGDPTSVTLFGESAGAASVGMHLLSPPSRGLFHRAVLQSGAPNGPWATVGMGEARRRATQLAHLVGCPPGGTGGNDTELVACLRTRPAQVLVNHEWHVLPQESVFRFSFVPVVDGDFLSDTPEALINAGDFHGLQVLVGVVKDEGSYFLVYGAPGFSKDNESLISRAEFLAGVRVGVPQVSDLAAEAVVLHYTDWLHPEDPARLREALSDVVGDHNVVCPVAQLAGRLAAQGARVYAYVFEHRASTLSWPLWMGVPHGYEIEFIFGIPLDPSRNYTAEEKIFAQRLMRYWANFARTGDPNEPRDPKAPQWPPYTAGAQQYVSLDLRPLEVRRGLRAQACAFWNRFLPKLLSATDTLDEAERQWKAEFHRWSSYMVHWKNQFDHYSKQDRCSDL

[4] = target: bovine serum albumin (BSA) (Bos taurus, UniProt P02769); details: equal concentrations (1000 µg/mL); mean ± SE
bovine serum albumin (BSA), sequence (P02769 25-607): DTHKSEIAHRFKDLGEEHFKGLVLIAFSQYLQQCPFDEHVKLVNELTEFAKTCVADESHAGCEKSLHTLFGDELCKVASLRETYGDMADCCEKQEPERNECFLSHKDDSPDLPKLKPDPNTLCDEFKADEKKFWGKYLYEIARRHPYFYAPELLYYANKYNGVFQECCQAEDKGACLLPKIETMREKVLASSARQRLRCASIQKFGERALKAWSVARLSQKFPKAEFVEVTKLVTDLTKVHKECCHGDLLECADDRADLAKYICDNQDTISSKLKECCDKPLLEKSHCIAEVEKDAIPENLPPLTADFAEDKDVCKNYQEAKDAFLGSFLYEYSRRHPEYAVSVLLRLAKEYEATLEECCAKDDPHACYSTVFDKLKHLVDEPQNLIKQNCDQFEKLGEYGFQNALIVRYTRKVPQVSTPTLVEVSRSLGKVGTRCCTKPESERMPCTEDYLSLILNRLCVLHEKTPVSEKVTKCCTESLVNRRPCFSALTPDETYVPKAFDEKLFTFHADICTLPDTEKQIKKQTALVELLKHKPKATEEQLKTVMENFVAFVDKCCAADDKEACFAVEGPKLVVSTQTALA

[5] = test system: proteinase enzyme (trypsin); assay: Proteinase enzyme inhibition (anti-inflammatory); type: biochemical; details: equal concentrations (1000 µg/mL); mean ± SE
[6] = Iron-reducing power (IRP); details: equal concentrations (1000 µg/mL); mean ± SE, three replicates
Experimental: (§1) All in vitro biological activities were assessed in the tested compounds at equal concentrations (1000 µg/mL). All assays were carried out in triplicate.
In vitro biological activities
(§2) The total antioxidant capacity (TAC) was determined by analyzing the green phosphate/Mo5+ complex at a wavelength (λ) of 695 nm, following the procedure described by Prieto
(§3) et al. Samples (at each concentration) were mixed with a reagent solution containing 0.3 N sulfuric
(§4) acid, 28 mM sodium phosphate, and 4 mM ammonium molybdate. Methanol (80%) was used in place
(§5) of the sample for the blank. The tubes were sealed and incubated in a boiling water bath for 90
(§6) minutes. After cooling to room temperature, the absorbance was measured at 695 nm against the
(§7) blank. Ascorbic acid was used at the same concentrations as a standard. The antioxidant capacity was
(§8) expressed as mg gallic acid equivalent per gram weight.
(§9) The iron reducing power was determined as µg/mL using the method proposed by Oyaizu
(§10) In brief, 1ml of the tested sample (at each concentration) was combined with 1mL of 200mM
(§11) sodium phosphate buffer (pH 6.6) and 1mL of 1% potassium ferricyanide. The mixture was then
(§12) incubated at 50°C for 20 minutes, followed by the addition of 1mL of trichloroacetic acid (10%). After
(§13) centrifugation at 2000rpm for 10 minutes, the upper layer solution (2.5 mL) was mixed with 2.5 mL of double deionized water and 1mL of fresh ferric chloride (0.1%). The absorbance was measured at
(§14) 700nm against a blank prepared without the sample. Ascorbic acid was used at the same
(§15) concentrations as a standard. A high absorbance at 700nm indicates a higher reducing power in the
(§16) The 1,1-Diphenyl-2-picryl-hydrazyl (DPPH) radical scavenging activities were evaluated using the method described by Rahman et al. An antioxidant substance capable of donating a
(§17) hydrogen atom to a solution containing DPPH- can reduce the stable free radical, causing the solution
(§18) to change color from violet to pale yellow. The remaining DPPH- radical was quantified by
(§19) nm using a spectroscopic method. Two milliliters of a DPPH solution (100 µM) in ethanol were mixed
(§20) with 2 mL of the sample (at each concentration). The reaction mixture for each concentration was
(§21) thoroughly vortexed and then incubated in the dark at room temperature for 30 minutes. The
(§22) absorbance was then measured spectrophotometrically at 518 nm against a blank (ethanol). For the
(§23) control, 2 mL of ethanol was added instead of the sample and run simultaneously with the test.
(§24) Ascorbic acid was used at the same concentrations as a positive control. Percent inhibition of the
(§25) DPPH free radical was calculated. The median inhibitory concentration (IC 50) for each tested
(§26) The procedure for the 2,2'-azinobis-(3-ethylbenzothiazoline-6-sulfonic acid) (ABTS) assay
(§27) potassium persulfate solution (2.4 mM). The working solution was prepared by mixing the two stock
(§28) solutions in equal quantities and allowing them to react at room temperature in a dark place for 14
(§29) hours. The solution was then diluted by mixing 1 mL of ABTS solution with 60 mL of methanol to
(§30) was prepared for each assay. The tested samples (at each concentration) were allowed to react with 1
(§31) mL of the ABTS solution, and the absorbance was taken at 734 nm after 7 minutes using a
(§32) spectrophotometer. The ABTS scavenging capacities of the samples were compared with that of
(§33) ascorbic acid (at the same concentrations).

[7] = ABTS radical scavenging assay; details: equal concentrations (1000 µg/mL); mean ± SE
Experimental: as §1
In vitro biological activities
as §2, §3, §4, §5, §6, §7, §8, §9, §10, §11, §12, §13, §14, §15, §16, §17, §18, §19, §20, §21, §22, §23, §24, §25, §26, §27, §28, §29, §30, §31, §32, §33

[8] = DPPH radical-scavenging activity; details: read-out: DPPH (IC50); mean ± SE, three replicates
Experimental: In vitro biological activities
as §16, §17, §18, §19, §20, §21, §22, §23, §24, §25

[9] = Total antioxidant capacity (TAC), phosphomolybdenum method; details: equal concentrations (1000 µg/mL); mean ± SE, three replicates
Experimental: as §1
In vitro biological activities
as §2, §3, §4, §5, §6, §7, §8, §9, §10, §11, §12, §13, §14, §15, §16, §17, §18, §19, §20, §21, §22, §23, §24, §25, §26, §27, §28, §29, §30, §31, §32, §33

SMILES | Inhibition (%) α-Amylase [1] [%] | Inhibition (%) α-Glucosidase [2] [%] | inhibition at 1000 µg/mL [3] [%] | Inhibition (%) Protein Denaturation [4] [%] | Inhibition (%) Proteinase [5] [%] | Iron-Reducing Power (IRP) [6] [µg/mL] | ABTS (%) inhibition [7] [%] | IC50 [8] [µM] | Total Antioxidant Capacity (TAC) [9] [mg Gallic Acid/g]
Cc1ccc(NC(=O)c2c(Nc3ccccc3)n[nH]c2/N=C/c2ccc(N3CCCCC3)cc2)cc1 [5b] | 9.12 ± 0.01 | 7.85 ± 0.01 | 12.28 ± 0.01 | 7.83 ± 0.01 | 6.81 ± 0.01 | 10.01 ± 0.02 | 22.03 ± 0.01 | 59.8 ± 0.03 | 15.26 ± 0.06
O=C(Nc1ccc(Cl)cc1)c1c(Nc2ccccc2)n[nH]c1/N=C/c1ccc(N2CCCCC2)cc1 [5c] | 17.94 ± 0.03 | 15.43 ± 0.03 | 24.15 ± 0.01 | 15.41 ± 0.02 | 13.40 ± 0.02 | 19.68 ± 0.04 | 43.34 ± 0.03 | 42.86 ± 0.02 | 30.01 ± 0.11
Cc1nn(-c2ccccc2)c(Cl)c1C=Nc1[nH]nc(Nc2ccccc2)c1C(=O)Nc1ccccc1 [6a] | 17.85 ± 0.03 | 15.35 ± 0.03 | 24.03 ± 0.01 | 15.33 ± 0.02 | 13.33 ± 0.02 | 19.58 ± 0.04 | 43.12 ± 0.03 | 43.35 ± 0.02 | 29.86 ± 0.11
Cc1ccc(NC(=O)c2c(Nc3ccccc3)n[nH]c2N=Cc2c(C)nn(-c3ccccc3)c2Cl)cc1 [6b] | 20.89 ± 0.03 | 17.96 ± 0.03 | 28.11 ± 0.02 | 17.94 ± 0.02 | 15.60 ± 0.02 | 22.91 ± 0.04 | 50.45 ± 0.03 | 36.02 ± 0.02 | 34.93 ± 0.13
Cc1nn(-c2ccccc2)c(Cl)c1C=Nc1[nH]nc(Nc2ccccc2)c1C(=O)Nc1ccc(Cl)cc1 [6c] | 20.92 ± 0.03 | 17.99 ± 0.03 | 28.16 ± 0.02 | 17.97 ± 0.02 | 15.62 ± 0.02 | 22.95 ± 0.05 | 50.54 ± 0.03 | 34.58 ± 0.02 | 34.99 ± 0.13
COc1ccc(Nc2n[nH]c(N=Cc3c(C)nn(-c4ccccc4)c3Cl)c2C(=O)Nc2ccccc2)cc1 [6d] | 18.19 ± 0.03 | 15.64 ± 0.03 | 24.48 ± 0.01 | 15.62 ± 0.02 | 13.58 ± 0.02 | 19.95 ± 0.04 | 43.93 ± 0.03 | 40.11 ± 0.02 | 30.42 ± 0.11
COc1ccc(Nc2n[nH]c(N=Cc3c(C)nn(-c4ccccc4)c3Cl)c2C(=O)Nc2ccc(C)cc2)cc1 [6e] | 18.25 ± 0.03 | 15.69 ± 0.03 | 24.56 ± 0.01 | 15.67 ± 0.02 | 13.63 ± 0.02 | 20.02 ± 0.04 | 44.08 ± 0.03 | 38.94 ± 0.02 | 30.52 ± 0.11
COc1ccc(Nc2n[nH]c(N=Cc3c(C)nn(-c4ccccc4)c3Cl)c2C(=O)Nc2ccc(Cl)cc2)cc1 [6f] | 18.22 ± 0.03 | 15.67 ± 0.03 | 24.52 ± 0.01 | 15.64 ± 0.02 | 13.60 ± 0.02 | 19.98 ± 0.04 | 44.00 ± 0.03 | 37.6 ± 0.02 | 30.47 ± 0.11
Cc1ccc(NC(=O)c2c(Nc3ccccc3)n[nH]c2N=Cc2c(C)n(C)n(-c3ccccc3)c2=O)cc1 [7b] | 17.88 ± 0.03 | 15.38 ± 0.03 | 24.07 ± 0.01 | 15.36 ± 0.02 | 13.35 ± 0.02 | 19.62 ± 0.04 | 43.19 ± 0.03 | 42.45 ± 0.02 | 29.91 ± 0.11
Cc1c(C=Nc2[nH]nc(Nc3ccccc3)c2C(=O)Nc2ccc(Cl)cc2)c(=O)n(-c2ccccc2)n1C [7c] | 17.91 ± 0.03 | 15.41 ± 0.03 | 24.11 ± 0.01 | 15.38 ± 0.02 | 13.38 ± 0.02 | 19.65 ± 0.04 | 43.27 ± 0.03 | 40.72 ± 0.02 | 29.96 ± 0.11
COc1ccc(Nc2n[nH]c(N=Cc3c(C)n(C)n(-c4ccccc4)c3=O)c2C(=O)Nc2ccccc2)cc1 [7d] | 18.16 ± 0.03 | 15.61 ± 0.03 | 24.44 ± 0.01 | 15.59 ± 0.02 | 13.56 ± 0.02 | 19.92 ± 0.04 | 43.85 ± 0.03 | 40.53 ± 0.02 | 30.36 ± 0.11
COc1ccc(Nc2n[nH]c(N=Cc3c(C)n(C)n(-c4ccccc4)c3=O)c2C(=O)Nc2ccc(C)cc2)cc1 [7e] | 9.38 ± 0.02 | 8.07 ± 0.02 | 12.62 ± 0.01 | 8.05 ± 0.01 | 4.81 ± 0.01 | 10.29 ± 0.02 | 22.65 ± 0.01 | 51.98 ± 0.03 | 15.68 ± 0.06
C[C@H]1O[C@H](O[C@H]2[C@H](O)[C@@H](O)[C@@H](O[C@H]3[C@H](O)[C@@H](O)C(O)O[C@@H]3CO)O[C@@H]2CO)[C@H](O)[C@@H](O)[C@@H]1N[C@H]1C=C(CO)[C@@H](O)[C@H](O)[C@H]1O (stereo partly drawn) [Acarbose, reference compound] | 76.58 ± 0.01 | 53.94 ± 0.01 |  |  |  |  |  |  | 
O=C1O[C@H]([C@@H](O)CO)C(O)=C1O [Ascorbic Acid, reference compound] |  |  |  |  |  | 71.85 ± 0.05 | 41.25 ± 0.01 | 29.3 ± 0.01 | 79.10 ± 0.11
